Test results from patent US20120259092A1, “NPY ANTAGONISTS” (priority 2011, published 2012).
Entries after “also recorded” stand apart in the source; their conditions may differ. Bridge positions count the residues as written; N and C are the ends. Square brackets hold non-standard residues; d marks the D form. Peptide text beside a SMILES is read from it. I, II: the chains in the order shown. * marks the point of attachment. DOTA = O=C(O)CN1CCN(CC(=O)O)CCN(CC(=O)*)CCN(CC(=O)O)CC1; Nle = CCCC[C@H](N)C(=O)O

Tests used:
[1] = molecular target: T1, NPY Y1 (Homo sapiens, UniProt P25929); test: Adenylate cyclase activity (forskolin-stimulated cAMP accumulation) flashplate assay in SK-N-MC cells; type: cell-based; settings: for Activity Y1-cAMP (SK-N-MC): agonistic or antagonistic property: SK-N-MC cells
T1 construct: SK-N-MC cells endogenously expressing Y1; host or cells: SK-N-MC
T1 sequence (P25929 1-384): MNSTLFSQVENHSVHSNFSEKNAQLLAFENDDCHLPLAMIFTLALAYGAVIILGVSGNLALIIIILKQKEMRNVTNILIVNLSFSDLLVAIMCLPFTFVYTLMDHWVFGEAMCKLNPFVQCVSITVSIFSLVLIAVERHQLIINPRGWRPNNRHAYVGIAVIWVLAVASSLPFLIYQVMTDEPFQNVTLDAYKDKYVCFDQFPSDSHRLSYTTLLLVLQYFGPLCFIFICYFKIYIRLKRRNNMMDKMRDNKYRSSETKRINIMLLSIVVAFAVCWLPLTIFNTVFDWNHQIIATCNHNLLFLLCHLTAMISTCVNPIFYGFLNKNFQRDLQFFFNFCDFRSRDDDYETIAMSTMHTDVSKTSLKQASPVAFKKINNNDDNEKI
Protocol: Cells were incubated for 30 min with 10 μM forskolin in the presence of [Leu^31-Pro^34]-PYY (LP-PYY) at concentrations ranging between 0.01 nM and 20 μM alone ([…]) or with 10 μM forskolin in the presence of LP-PYY at concentrations ranging between 0.01 nM and 20 μM supplemented with a fixed concentration of 20 μM of the analog Peptide No. 11 (▪). […] Peptide No. 11 given alone has no effect on the accumulation of forskolin-stimulated cAMP (▴).
Adenylate cyclase activity with respect to NPY Y1 was determined in SK-N-MC cells using the adenylate cyclase activation flashplate assay (SMP004) from PerkinElmer. SK-N-MC cells were seeded in 96-well culture plates at 25,000 cells/well and cultured for 48 h at 37° C. and 5% CO2. Culture medium was then removed from the wells and fresh medium (100 μL) containing 0.5 mM 3-isobutyl-1-methylxanthine (IBMX) was added to each well. Cells were incubated for 30 min at 37° C. Medium was then removed and replaced with fresh medium containing 0.5 mM IBMX, with or without 10 μM forskolin and various concentrations of the peptides to be analyzed. Cells were incubated for 30 min at 37° C. After removal of the medium, cells were lysed and cAMP accumulation was determined using the SMP004 kit from PerkinElmer.
Because the addition of a DOTA moiety can change the functional characteristics of a compound, as recently shown in the somatostatin receptor field for sst3, compounds having a high or moderate Y1 affinity were analyzed in an adenylate cyclase activity assay for their agonistic or antagonistic properties. […] Given alone at a high concentration of 20 μM, they were unable to inhibit forskolin-stimulated cAMP accumulation but they efficiently antagonized the agonistic effect of 100 nM [Leu^31, Pro^34]-hPYY. […] The conclusion is that the DOTA-conjugated compound, i.e. Peptide No. 11, with its high binding affinity and its antagonist property represents an excellent candidate for in vivo tumor targeting.

[2] = molecular target: T1, NPY Y1; test: Receptor autoradiography binding, 125I-hPYY displacement on SK-N-MC cell membrane pellet sections; settings: for Displacement of 125I-hPYY (FIG. 2): SK-N-MC cell line, competition experiments; for IC50: SK-N-MC membrane pellet sections, 125I-hPYY, read-out: Binding affinity (IC50 nM) Y1 (SK-N-MC)
Protocol: Testing of Peptides 1-11 was carried out using specific cell lines. The neuroepithelioma cell line SK-N-MC endogenously expressing the NPY Y1 receptor was obtained from ATCC (HTB-10; LGC Standards, Teddington, Middlesex, UK). Cells were cultured at 37° C. and 5% CO2 in MEM medium with GlutaMax I and supplemented with 10% FBS, 100 U/ml penicillin and 100 μg/ml streptomycin, 1 mM MEM sodium pyruvate, and MEM non-essential amino acids (1×). The neuroblastoma cell line SH-SY5Y endogenously expressing the NPY Y2 receptor, was provided by Dr. Paolo Paganetti (Novartis, Basel, Switzerland). Cells were cultured at 37° C. and 5% CO2 in MEM/Ham's F12 with GlutaMax I and supplemented with 10% FBS, 100 U/ml penicillin and 100 μg/ml streptomycin, 1 mM MEM sodium pyruvate, and MEM non-essential amino acids (1×).
Binding affinities of the compounds were assessed using sections of cell membrane pellets of SK-N-MC for NPY Y1 or SH-SY5Y for NPY Y2. Briefly, membrane pellets were prepared and stored at −80° C., and receptor autoradiography was performed on 20-μm thick cryostat sections of the membrane pellets, mounted on microscope slides and stored at −20° C. The slides were preincubated in Krebs-Ringer solution (NaCl 119 mM, KCl 3.2 mM, KH2PO4 1.19 mM, MgSO4 1.19 mM, NaHCO3 25 mM, CaCl2 2.53 mM, D-glucose 10 mM; pH 7.4) for 60 min at room temperature. Then, they were incubated for 120 min in Krebs-Ringer solution containing 0.1% BSA, 0.05% bacitracin, and 10 000 cpm/100 μl of the ^125I-labeled human PYY alone or with increasing concentrations ranging from 0.1 nM up to 1000 nM of non-labeled hPYY, as control, or with the compounds to be tested. After the incubation, the slides were washed two times for 5 min and then rinsed four times in ice-cold preincubation solution. After drying, the slides were exposed to Kodak films Biomax MR® for 7 days. IC50 values were calculated after quantification of the data using a computer-assisted image processing system. Tissue standards containing known amount of isotope, cross-calibrated to tissue-equivalent ligand concentrations were used for quantification.
The DOTA-free and DOTA-coupled analogs listed in Table 1 were analyzed in receptor autoradiography experiments for NPY Y1 and Y2 receptor binding affinities on SK-N-MC cells endogenously expressing Y1 and SH-SY5Y cells endogenously expressing Y2, respectively. Pharmacological displacement experiment using SK-N-MC cell membrane pellet sections for Peptides Nos. 9, 10 and 11 are shown in FIG. 2. The addition of two DOTA moieties to the homodimeric analogs decreases the Y1 binding affinity up to 2-30 fold.

Activity Y1-cAMP (SK-N-MC): agonistic or antagonistic property ([1]; 10 μM forskolin)	Effect on forskolin-stimulated cAMP accumulation, given alone ([1]; peptide alone, 20 μM, 10 μM forskolin)	Displacement of 125I-hPYY (FIG. 2) [2]	IC50 [2]	Compound	Effect on dose response curve of [Leu31,Pro34]-PYY (LP-PYY) ([1]; peptide fixed at 20 μM, with increasing LP-PYY, 10 μM forskolin, 30 min)	Inhibition of forskolin-stimulated cAMP accumulation (agonist control) ([1]; applied at 20 μM and 100 nM)
Antagonist	no effect	high affinity displacements	13 nM	CCCC[C@H](NC(=O)[C@H](CCCNC(=N)N)NC(=O)[C@H](Cc1c[nH]c2ccccc12)NC(=O)[C@H](CSSC[C@H](NC(=O)[C@@H]1CCCN1C(=O)[C@H](CC(N)=O)NC(=O)[C@@H](N)[C@@H](C)CC)C(=O)N[C@@H](Cc1c[nH]c2ccccc12)C(=O)N[C@@H](CCCNC(=N)N)C(=O)N[C@@H](CCCC)C(=O)N[C@@H](CCCNC(=N)N)C(=O)N[C@@H](Cc1ccc(O)cc1)C(N)=O)NC(=O)[C@@H]1CCCN1C(=O)[C@H](CCCCNC(=O)CN1CCN(CC(=O)O)CCN(CC(=O)O)CCN(CC(=O)O)CC1)NC(=O)[C@@H](N)[C@@H](C)CC)C(=O)N[C@@H](CCCNC(=N)N)C(=O)N[C@@H](Cc1ccc(O)cc1)C(N)=O [Peptide No. 11] (I: H-IK(DOTA)PCWR[Nle]RY-NH2 / II: H-INPCWR[Nle]RY-NH2; disulfide I:4-II:4)	shifts the dose response curve of LP-PYY to the right; also recorded: shift the dose response curve of [Leu^31, Pro^34]-hPYY to the right	–
Antagonist	–	–	143 ± 37 nM	CC[C@H](C)[C@H](NC(=O)CN1CCN(CC(=O)O)CCN(CC(=O)O)CCN(CC(=O)O)CC1)C(=O)N[C@@H](CC(N)=O)C(=O)N1CCC[C@H]1C(=O)N[C@@H](CSSC[C@H](NC(=O)[C@@H]1CCCN1C(=O)[C@H](CC(N)=O)NC(=O)[C@@H](NC(=O)CN1CCN(CC(=O)O)CCN(CC(=O)O)CCN(CC(=O)O)CC1)[C@@H](C)CC)C(=O)N[C@@H](Cc1ccc(O)cc1)C(=O)N[C@@H](CCCNC(=N)N)C(=O)N[C@@H](CC(C)C)C(=O)N[C@@H](CCCNC(=N)N)C(=O)N[C@@H](Cc1ccc(O)cc1)C(N)=O)C(=O)N[C@@H](Cc1ccc(O)cc1)C(=O)N[C@@H](CCCNC(=N)N)C(=O)N[C@@H](CC(C)C)C(=O)N[C@@H](CCCNC(=N)N)C(=O)N[C@@H](Cc1ccc(O)cc1)C(N)=O [compound 2] (I: {DOTA}-INPCYRLRY-NH2 / II: {DOTA}-INPCYRLRY-NH2; disulfide I:4-II:4)	–	–
Antagonist	–	–	294 ± 33 nM	CCCC[C@H](NC(=O)[C@H](CCCNC(=N)N)NC(=O)[C@H](Cc1c[nH]c2ccccc12)NC(=O)[C@H](CSSC[C@H](NC(=O)[C@@H]1CCCN1C(=O)[C@H](CC(N)=O)NC(=O)[C@@H](NC(=O)CN1CCN(CC(=O)O)CCN(CC(=O)O)CCN(CC(=O)O)CC1)[C@@H](C)CC)C(=O)N[C@@H](Cc1c[nH]c2ccccc12)C(=O)N[C@@H](CCCNC(=N)N)C(=O)N[C@@H](CCCC)C(=O)N[C@@H](CCCNC(=N)N)C(=O)N[C@@H](Cc1ccc(O)cc1)C(N)=O)NC(=O)[C@@H]1CCCN1C(=O)[C@H](CC(N)=O)NC(=O)[C@@H](NC(=O)CN1CCN(CC(=O)O)CCN(CC(=O)O)CCN(CC(=O)O)CC1)[C@@H](C)CC)C(=O)N[C@@H](CCCNC(=N)N)C(=O)N[C@@H](Cc1ccc(O)cc1)C(N)=O [compound 4] (I: {DOTA}-INPCWR[Nle]RY-NH2 / II: {DOTA}-INPCWR[Nle]RY-NH2; disulfide I:4-II:4)	–	–
–	–	–	–	[Leu^31, Pro^34]-hPYY [reference compound]	–	efficiently inhibited forskolin-stimulated cAMP accumulation
–	–	high affinity displacements	–	hPYY: non-labeled human peptide YY, used as control in binding competition [reference compound]	–	–
